The values below come from patent publication US20110318424A1, “METHODS FOR PROLONGING VIABILITY OF CONE CELLS USING MODULATORS OF THE MAMMALIAN TARGET OF RAPAMYCINE (mTOR)” (PRESIDENT AND FELLOWS OF HARVARD COLLEGE, priority 2008, published 2011).

Entries after “also recorded” stand apart in the source; their conditions may differ.

The subject of series [1] is photoreceptors (rods and cones) of rd10 mouse. As to conditions: cited from earlier work.
A further series deals with cones of PDE-β−/− mice. Briefly: Cone survival in PDE-β−/− mice after systemic insulin or streptozotocin treatment (lacZ staining of retinal flat mounts). The format is in vivo, mouse. The note with it: for cone survival: 4 weeks of treatment from PW3, read at PW7, versus uninjected control; for cone survival after prolonged treatment: 7 weeks of treatment from PW3, read at PW10, versus untreated. The protocol: (§1) Rapamycin, Streptozotocin and Insulin treatments were performed as follows. Rapamycin was diluted to 10 mg/ml in ethanol. The stock was diluted to 0.015 mg/ml in drinking water over a period of 2 weeks. A single intraperitoneal injection of 150 μl (12 mg/ml in 0.1M citric acid, ph4.5) of Streptozotocin was injected at postnatal day (P) 21. Insulin was injected intraperitoneally daily starting at P21. The concentration was increased weekly such that the first week, 10 U/kg body weight, the second 15 U/kg, the third 20 U/kg and fourth 30 U/kg body weight, were injected. In the treatment that lasted 7 weeks 30 U/kg body weight were injected for the remaining 3 weeks. Blood glucose levels were measured by collecting a drop of blood from the tail directly onto a test strip from TrueTrack smart system (CVS pharmacy). Eye bleeds were avoided due to the fact that cell survival in the retina was being assayed.
Quantification of cone survival was performed as follows. The colors of the bright light image were inverted and processed with Imaris software (Bitplane Inc) to calculate the percentage of blue surface area versus the total retinal surface area (see also FIG. 17). A minimum of 8 retinae per treatment, and for the control, were analyzed. P-values were calculated by the student's t-test.

The next series deals with p*-mTOR in dorsal cones. In words: Retinal explant culture of wild type mice, p*-mTOR immunofluorescence. The format is cell-based, mouse. As to conditions: wild type retinal explants, 4 hours, absence of glucose, leucine added at 200 μM. How it is done: Retinal explant cultures: The retina was dissected free from other ocular tissues in DMEM, and then incubated in conditions according to the chart in FIG. 10a. Regular DMEM was at 4.5 g/L glucose, low glucose was at 1 g/L, leucine was added at 200 μM and FCS at 10%. Incubation was performed for 4 h and the retinae were fixed and processed for antibody staining as described below.
Whole mount and section antibody staining were performed as previously (Punzo, C. & Cepko, C. L. (2008) Dev Dyn 237, 1034-42) described with the following modifications. Antibody staining for LAMP-2: Triton was replaced with 0.01% Saponin. Antibody staining for p*-mTOR and p*-S6: PBS was replaced by TBS in every step of the procedure. […] Time points analyzed for the rod and cone death kinetics (P: postnatal day; PW: postnatal week): PDE-β−/−: P10-P20 daily, PW3-10 weekly, PW 12, PW15, PW18, PW45; PDE-γ-KO: P10-P20 daily, PW3-PW10 weekly, PW15, PW25, PW45; Rho-KO: PW4-PW8 weekly, PW10, PW11, PW17, PW20, PW25, PW27, PW31, PW34, PW37, PW45, PW55, PW80; P23H: PW5, PW10, PW16, PW25, PW30, PW35, PW40, PW65, PW70, PW75, PW80, PW85.

The next series has as its system HIF-1α. In words: HIF-1α immunofluorescence on retinal flat mounts of treated PDE-β−/− mice. As to conditions: PDE-β−/− mice treated for 4 weeks. Type of series: in vivo, mouse. The protocol:
as §1, with “Eye bleeds were avoided due to the fact that cell survival in the retina was being assayed.” left out
Whole mount and section antibody staining were performed as previously (Punzo, C. & Cepko, C. L. (2008) Dev Dyn 237, 1034-42) described with the following modifications. […] Time points analyzed for the rod and cone death kinetics (P: postnatal day; PW: postnatal week): PDE-β−/−: P10-P20 daily, PW3-10 weekly, PW 12, PW15, PW18, PW45; PDE-γ-KO: P10-P20 daily, PW3-PW10 weekly, PW15, PW25, PW45; Rho-KO: PW4-PW8 weekly, PW10, PW11, PW17, PW20, PW25, PW27, PW31, PW34, PW37, PW45, PW55, PW80; P23H: PW5, PW10, PW16, PW25, PW30, PW35, PW40, PW65, PW70, PW75, PW80, PW85.

As to proinsulin, the hyperglycemia entry in series [1] (mice treated with proinsulin) is listed as “did not develop hyperglycemia”. In series [1] (rd10 mouse, constitutive expression, rods and cones), the photoreceptor death result is reported as “delays photoreceptor death”.
Take `CN(N=O)C(=O)N[C@H]1C(O)O[C@H](CO)[C@@H](O)[C@@H]1O` (mixture of isomers) [streptozotocin]: in the series with cones of PDE-β−/− mice, the cone survival result is given as “decrease in cone survival” and the “cone survival after prolonged treatment” value is listed as “no significant difference in cone survival”.
Consider `CC(C)C[C@H](N)C(=O)O` [leucine], for which the “dorsal p*-mTOR with increased leucine” value with p*-mTOR in dorsal cones was “abolished”.
In the case of insulin, in the series with cones of PDE-β−/− mice, the cone survival entry is “improved cone survival; also recorded: prolonged cone survival” and the “cone survival after prolonged treatment” value is reported as “did not show any significant improvement of cone survival; also recorded: no significant difference in cone survival”. Also, the “upregulation of HIF-1α in cones” value in the series with HIF-1α is “did not show the upregulation of HIF-1α; also recorded: prevented the upregulation of HIF-1α”.
